Target: T1, nitrogen monoxide synthase (NO synthase) (Rattus norvegicus, UniProt P29476)
T1 construct: the supernatant was then decanted off and frozen in portions; from tissue; host or cells: rat cerebellum (homogenate, 20,000 g supernatant)
Assay: HTS-NOS assay (nitrogen monoxide synthase assay)
Type: biochemical
Settings: compound at 10 μM; enzyme preparation from rat cerebella; [3H]-arginine substrate
Source text: This assay makes it possible to determine the percentage inhibition of NO synthase by a compound of the general formula I used according to the invention by measuring NOS activity on exposure to the compound. NO synthase is here mixed under suitable conditions together with radioactively labelled arginine and the particular compound of the general formula I. After termination of the NO formation reaction at a predetermined time, the quantity of unconverted arginine is directly or indirectly determined. […] This assay may be carried out at follows: • (a) Incubation of the NO synthase with labelled arginine as the substrate in a reaction vessel, • (b) Separation of the labelled arginine from the labelled citrulline optionally arising as a product of the enzymatic reaction at a time at which the concentration of citrulline is rising, • (c) Measurement of the quantity of arginine separated in each case.
Separation is performed by means of a filter plate membrane.
Radioactive arginine is used as the substrate in this HTS-NOS assay. Depending on the type of microtitre plate (MTP), the assay volume may be selected in the range between 25 μl and 250 μl. Depending on the enzyme source used, cofactors and coenzymes are added. The batches are incubated in this microtitre plate (assay MTP) according to step (a) at room temperature and, depending on the enzyme activity used (units), lasts between 5 and 60 minutes. On completion of incubation (step (a)), the plate is placed in a cell harvester, which is equipped with an MTP which has a cation exchange membrane as a filter bottom (filter MTP). All the batches from the assay MTP are transferred into this filter MTP and suction filtered through a cation exchange filter plate, a paper filter loaded with phosphate groups. The filter MTP is then washed with buffer or water. This procedure binds the remaining substrate arginine onto the cation exchanger, while the enzymatically formed radioactive citrulline is quantitatively eluted. Once the filter MTP has been dried and scintillation liquid added, the bound arginine can be counted in the scintillation counter. Low radioactivity indicates an uninhibited NOS reaction. An inhibited enzyme reaction means that the radioactive arginine has not been converted. This means that there is a high level of radioactivity on the filter.
• Arginine, L-[2,3,4-^3H]-monohydrochloride; item no. […] The pH value of the buffer was adjusted to 7.4 at 25° C. • Washing medium: H2O Enzyme Preparation
Rat cerebella were used as the starting tissue. The animals were stunned and killed, the brain tissue, the cerebellum, was dissected out, 1 ml of enzyme preparation buffer (4° C.) was added per cerebellum, and the tissue was disrupted for 1 min at 6000 rpm in a Polytron homogeniser. The mixture was then centrifuged at 4° C. for 15 min at 20,000 g, and the supernatant was then decanted off and frozen in portions at −80° C. (discarding the precipitate).
96-Well MTPs with a well capacity of ≦250 μl were used Pipetting sequence: see table 1:
Once the pipetting operation was complete, a lid was laid on top of this MTP (assay MTP). Incubation at 25° C. (room temperature (RT)) for 5-60 min, depending on the quantity and activity of the enzyme used.
The contents of the assay MTP were then transferred with the assistance of a 96 well cell harvester into a 96 well cation exchange MTP (filter MTP) and suction filtered. A single washing with […] of H2O (from a trough) was then performed.
The plate was then dried for 1 h at 60° C. in a drying cabinet. The bottom of the filter MTP was then carefully sealed from beneath with a “back seal”. 35 μl of scintillating material were then pipetted into each well. The top of the plate was also sealed with a “top seal”. After 1 hour's waiting time, the plate was assessed on the β-counter.

SMILES | inhibition at 10 µM
COc1ccc(C2(C)CC(Nc3cc(C)cc(C)n3)C(=O)O2)cc1OC (stereo not shown) [Example 74, 5-(3,4-Dimethoxy-phenyl)-3-(4,6-dimethyl-pyridin-2-ylamino)-5-methyl-dihydro-furan-2-one] | 51%
CC1(c2ccc(C#N)cc2)CC(Nc2ncc(Br)cn2)C(=O)O1 (stereo not shown) [Example 26, 4-[4-(5-Bromo-pyrimidin-2-ylamino)-2-methyl-5-oxo-tetrahydro-furan-2-yl]-benzonitrile] | 43%
CC1(c2ccc3c(c2)OCO3)CC(Nc2n[nH]cc2C#N)C(=O)O1 (stereo not shown) [Example 32, 3-(5-Benzo[1,3]dioxol-5-yl-5-methyl-2-oxo-tetrahydro-furan-3-ylamino)-1H-pyrazole-4-carbonitrile] | 41%
Cc1ccnc(NC2CC(C)(c3ccc(C)c(C)c3)OC2=O)c1 (stereo not shown) [Example 6, 5-(3,4-Dimethyl-phenyl)-5-methyl-3-(4-methyl-pyridin-2-ylamino)-dihydro-furan-2-one] | 40%
COc1ccccc1C1(C)CC(Nc2ccccn2)C(=O)O1 (stereo not shown) [Example 67, 5-(2-Methoxy-phenyl)-5-methyl-3-(pyridin-2-ylamino)-dihydro-furan-2-one] | 45%
Cc1ccc(C2(C)CC(Nc3cc(C)cc(C)n3)C(=O)O2)cc1 (stereo not shown) [Example 10, 3-(4,6-Dimethyl-pyridin-2-ylamino)-5-methyl-5-p-tolyl-dihydro-furan-2-one] | 61%
Cc1ccnc(NC2CC(C)(c3ccc(C(C)(C)C)cc3)OC2=O)c1 (stereo not shown) [Example 24, 5-(4-tert-Butyl-phenyl)-5-methyl-3-(4-methyl-pyridin-2-ylamino)-dihydro-furan-2-one] | 84%
COc1ccc(OC)c(C2(C)CC(Nc3ncc(C(F)(F)F)cc3Cl)C(=O)O2)c1 (stereo not shown) [Example 69, 3-(3-Chloro-5-trifluoromethyl-pyridin-2-ylamino)-5-(2,5-dimethoxy-phenyl)-5-methyl-dihydro-furan-2-one] | 58%
Cc1ccnc(NC2CC(C)(c3cc4ccccc4o3)OC2=O)c1 (stereo not shown) [Example 31, 5-Benzofuran-2-yl-5-methyl-3-(4-methyl-pyridin-2-ylamino)-dihydro-furan-2-one] | 44%
COc1ccc(OC)c(C2(C)CC(Nc3n[nH]c(SC)c3C#N)C(=O)O2)c1 (stereo not shown) [Example 65, 3-[5-(2,5-Dimethoxy-phenyl)-5-methyl-2-oxo-tetrahydro-furan-3-ylamino]-5-methylsulfanyl-1H-pyrazole-4-carbonitrile] | 42%
CCOc1ccc(C2(C)CC(Nc3cc(C)cc(C)n3)C(=O)O2)cc1 (stereo not shown) [Example 12, 3-(4,6-Dimethyl-pyridin-2-ylamino)-5-(4-ethoxy-phenyl)-5-methyl-dihydro-furan-2-one] | 59%
COc1cc(OC)cc(C2(C)CC(Nc3ncc(C(F)(F)F)cc3Cl)C(=O)O2)c1 (stereo not shown) [Example 68, 3-(3-Chloro-5-trifluoromethyl-pyridin-2-ylamino)-5-(3,5-dimethoxy-phenyl)-5-methyl-dihydro-furan-2-one] | 60%
COc1cccc(C2(C)CC(Nc3cc(C)cc(C)n3)C(=O)O2)c1 (stereo not shown) [Example 72, 3-(4,6-Dimethyl-pyridin-2-ylamino)-5-(3-methoxy-phenyl)-5-methyl-dihydro-furan-2-one] | 40%
Cc1ccnc(NC2CC(C)(c3ccc(Br)cc3)OC2=O)c1[N+](=O)[O-] (stereo not shown) [Example 52, 5-(4-Bromo-phenyl)-5-methyl-3-(4-methyl-3-nitro-pyridin-2-ylamino)-dihydro-furan-2-one] | 43%
Cc1cc(C)nc(NC2CC(C)(c3ccc4ccccc4c3)OC2=O)c1 (stereo not shown) [Example 36, 3-(4,6-Dimethyl-pyridin-2-ylamino)-5-methyl-5-naphthalen-2-yl-dihydro-furan-2-one] | 65%

Results, then the molecule that gave them:

inhibition at 10 µM | SMILES
42% | COc1ccc(OC)c(C2(C)CC(Nc3n[nH]cc3C#N)C(=O)O2)c1 (stereo not shown) [Example 64, 3-[5-(2,5-Dimethoxy-phenyl)-5-methyl-2-oxo-tetrahydro-furan-3-ylamino]-1H-pyrazole-4-carbonitrile]
44% | Cc1cnc(NC2CC(C)(c3ccc(C#N)cc3)OC2=O)c(Br)c1 (stereo not shown) [Example 13, 4-[4-(3-Bromo-5-methyl-pyridin-2-ylamino)-2-methyl-5-oxo-tetrahydro-furan-2-yl]-benzonitrile]
47% | CC1(c2ccc3ccccc3c2)CC(Nc2ccc([N+](=O)[O-])cn2)C(=O)O1 (stereo not shown) [Example 44, 5-Methyl-5-naphthalen-2-yl-3-(5-nitro-pyridin-2-ylamino)-dihydro-furan-2-one]
43% | Cc1nc(NC2CC(C)(c3ccc(Oc4ccccc4)cc3)OC2=O)ccc1Br (stereo not shown) [Example 17, 3-(5-Bromo-6-methyl-pyridin-2-ylamino)-5-methyl-5-(4-phenoxy-phenyl)-dihydro-furan-2-one]
40% | CC(C)(C)c1ccc(C2(C)CC(Nc3ncccc3[N+](=O)[O-])C(=O)O2)cc1 (stereo not shown) [Example 18, 5-(4-tert-Butyl-phenyl)-5-methyl-3-(3-nitro-pyridin-2-ylamino)-dihydro-furan-2-one]
41% | Cc1ccnc(NC2CC(C)(c3ccc(C4CCCCC4)cc3)OC2=O)c1 (stereo not shown) [Example 8, 5-(4-Cyclohexyl-phenyl)-5-methyl-3-(4-methyl-pyridin-2-ylamino)-dihydro-furan-2-one]
45% | Cc1ccnc(NC2CC(C)(c3ccc(C)cc3C)OC2=O)c1 (stereo not shown) [Example 7, 5-(2,4-Dimethyl-phenyl)-5-methyl-3-(4-methyl-pyridin-2-ylamino)-dihydro-furan-2-one]
54% | CC(C)(C)c1ccc(C2(C)CC(Nc3ncccc3OCc3ccccc3)C(=O)O2)cc1 (stereo not shown) [Example 20, 3-(3-Benzyloxy-pyridin-2-ylamino)-5-(4-tert-butyl-phenyl)-5-methyl-dihydro-furan-2-one]
40% | COc1cc(OC)cc(C2(C)CC(Nc3n[nH]cc3Br)C(=O)O2)c1 (stereo not shown) [Example 62, 3-(4-Bromo-1H-pyrazol-3-ylamino)-5-(3,5-dimethoxy-phenyl)-5-methyl-dihydro-furan-2-one]
41% | Cc1ccnc(NC2CC(C)(c3cc4ccccc4s3)OC2=O)c1 (stereo not shown) [Example 30, 5-Benzo[b]thiophen-2-yl-5-methyl-3-(4-methyl-pyridin-2-ylamino)-dihydro-furan-2-one]
40% | Cc1ccc(C2(C)CC(Nc3ccc4cccc(O)c4n3)C(=O)O2)c(C)c1 (stereo not shown) [Example 1, 5-(2,4-Dimethyl-phenyl)-3-(8-hydroxy-quinolin-2-ylamino)-5-methyl-dihydro-furan-2-one]
58% | CC(C)C1(c2ccccc2)CC(Nc2ncccn2)C(=O)O1 (stereo not shown) [Example 45, 5-Isopropyl-5-phenyl-3-(pyrimidin-2-ylamino)-dihydro-furan-2-one]
40% | CCCc1nc(NC2CC(C)(c3cc(OC)cc(OC)c3)OC2=O)ncc1C(=O)OCC (stereo not shown) [Example 61, 2-[5-(3,5-Dimethoxy-phenyl)-5-methyl-2-oxo-tetrahydro-furan-3-ylamino]-4-propyl-pyrimidine-5-carboxylic acid ethyl ester]
51% | Cc1cccc(C2(C)CC(Nc3ccc4ccccc4n3)C(=O)O2)c1 (stereo not shown) [Example 9, 5-Methyl-3-(quinolin-2-ylamino)-5-m-tolyl-dihydro-furan-2-one]
91% | Cc1cc(C)nc(NC2CC(C)(c3ccc(Oc4ccccc4)cc3)OC2=O)c1 (stereo not shown) [Example 21, 3-(4,6-Dimethyl-pyridin-2-ylamino)-5-methyl-5-(4-phenoxy-phenyl)-dihydro-furan-2-one]
45% | CCOC(=O)c1c[nH]nc1NC1CC(C)(c2ccc3c(c2)OCO3)OC1=O (stereo not shown) [Example 33, 3-(5-Benzo[1,3]dioxol-5-yl-5-methyl-2-oxo-tetrahydro-furan-3-ylamino)-1H-pyrazole-4-carboxylic acid ethyl ester]

Source: US6943181B2, “Use of substituted gamma-lactone compounds as pharmaceutical preparations” (Grunenthal GmbH, priority 2001, dated 2005)
